Reference: patent US20240181136A1, “LOW MOLECULAR WEIGHT HYDROGELS COMPRISING THIOGLYCOLIPIDS” (ARIZONA BOARD OF REGENTS ON BEHALF OF THE UNIVERSITY OF …, priority 2021, published 2024)

Key:
Format in all cases: physicochemical
[1] = Stability of hydrogel disks in aqueous media of various pH
Source text: Stability of some of the representative hydrogels of the invention in various pH aqueous media was investigated.

[2] = Small amplitude oscillatory shear rheology of hydrogels (strain sweep, frequency sweep, thixotropy); details: LacSC10 2 wt %, LacSC12 1 wt %
Protocol: Rheometry. The viscoelastic mechanical properties of the hydrogels were characterized using small amplitude oscillatory shear rheology on a Discovery Hybrid Rheometer 2 (TA Instruments, USA) with a sandblasted 20 mm cone-and-plate geometry at a 1° angle and a sandblasted stage. Inertia, friction, and rotational mapping calibrations were performed prior to each experiment. A Peltier temperature-controlled stage was maintained at 4° C., 10° C., 25° C., or 37° C. for rheology testing. Hydrogels were heated in a water bath above their transition temperature for 5 min, then transferred to the stage before the geometry was lowered quickly (1-3 sec) to the testing gap height of 50 μm. Excess gel was trimmed from the edges of the assembly. To control evaporation, the assembly was encased in a solvent trap with a water seal, and a mineral oil barrier was placed around the edges of the trap. Hydrogels were allowed to form and relax for 1 hour prior to experimentation. Strain sweeps were performed from 0.01% to 1000% shear strain at a constant 10 rad/s angular frequency. G′ (storage modulus) and G″ (loss modulus) were determined by averaging data within the linear viscoelastic region of the strain sweep. Frequency sweeps were performed from 0.01 rad/s to 100 rad/s at a constant 0.01% shear strain. Thixotropy experiments were conducted by cycling the shear strain between 0.01% and 100%. […]

[3] = Differential scanning calorimetry of hydrogels (gel-sol phase transition); details: for Phase transition temperature: DSC heating 5° C. per min; for Enthalpy (J/g hydrogel) / Enthalpy (kJ/mol thioglycolipids): gel-sol transition
Protocol: Differential Scanning calorimetry. A Mettler Toledo DSC 823e differential scanning calorimeter, equipped with cooling apparatus, was used for measurement of the phase transition temperature and enthalpy of the gels. Hydrogel samples were first prepared using the fabrication method described above. Then, they were heated to 75° C. (or 85° C. for LacSC12) until they were in the solution state and then pipetted into aluminum, 40 μL DSC pans and capped with lids. The amount of hydrogel in each aluminum pan was controlled to about 6-8 mg. The pans were maintained at 85° C. for 1 min to ensure the samples were in the solution state. Then, they were cooled to 5° C. and maintained at this temperature for 20 min to ensure the formation of hydrogels. […], the samples were heated from 5° C. to 85° C. at a heating rate at 5° C. per min.
Thermal Properties by DSC. Differential scanning calorimetry (DSC) was used to determine the phase transition temperature as well as to explore the possible existence of other lyotropic phases. DSC involves monitoring the enthalpy change during a phase transition, which can be used as a measure of hydrogel stability. The results (Table 2) indicated an endothermic transition between 30° C. and 80° C. for all thioglycolipid hydrogels studied, and these transitions matched those observed visually in bulk solutions. Overall, hydrogels with longer carbon chains had higher thermostability (i.e., higher phase transition temperature). In addition, the LacSCx (x=10,12) hydrogels had higher thermostability than the CelSCx (x=10,12) hydrogels, despite similar phase transition enthalpies. […] However, the LacSC12 and CelSC12 hydrogels required twice the enthalpy compared to the other three.

[4] = Visual assessment of thioglycolipid aggregation and hydrogel formation; design: key to Visual assessment of aggregation and gelation: G = gel; F = fibrous aggregation; C = clear solution; O = cloudy solution; details: room temperature
Protocol: Preparation of Thioglycolipid Solutions and Hydrogel Fabrication. Aqueous solutions of thioglycolipids were prepared by weighing 2-3 mg of thioglycolipids and adding an appropriate volume of water to make solution samples at desired concentrations in vials. The vials were capped, sealed with Parafilm, and heated to 75° C. (or 85° C. for LacSC12) until the thioglycolipids were completely dissolved, which typically required about 1 min. The samples were then allowed to cool to ambient temperature. Above some minimal concentration, the solution forms hydrogels upon cooling (FIG. 1). While hydrogelation happens in under 1 min, the gels were allowed to equilibrate at room temperature for 15 min before any analysis. To make metastable thiocellobiosides gels, the samples were quenched at −4° C. after dissolution at 75° C. Although the metastable hydrogels also formed in under 1 min, the gels were allowed to equilibrate at −4° C. for 15 min before analysis.
Visual Assessment of Thioglycolipid Hydrogel Formation. A wide range of thioglycolipid solutions were evaluated to establish concentration conditions (wt %) under which hydrogelation occurs and to assess the formation of other phases. For LacSC8 and LacSC12 solutions at concentrations <0.5 wt %, the solutions were either clear (C) or contain large aggregates (O) (i.e., cloudy). These solutions formed partial hydrogels surrounded by clear solution between 0.5 but <1 wt %, and were completely gelled at concentrations of 1 wt % and greater. Solutions of LacSC10 at <2 wt % formed partial hydrogels surrounded by clear liquid but were completely gelled at or above 2 wt %. […] CelSC10 and CelSC12 solutions formed settled fibrous aggregates in clear solution after equilibrating at ambient temperature overnight. […] If retained at 5° C. , the CelSC10 and CelSC12 gels were stable for at least 6 months. […] Powder x-ray diffraction confirmed that these fibrous aggregates were crystalline. Overall, the thioglycolipid concentration at which hydrogelation can be observed can be as low as 0.05 wt %, depending on thioglycolipid system, compared to the typical concentration for hydrogelation of at least 1 wt % commonly reported in the literature, although 0.25-2 wt % is the concentration range wherein these thioglycolipid solutions became fully hydrogelled. The existence of metastable hydrogels and the ability to tune the transformation of hydrogels into crystals may allow their potential use as smart materials for different applications.

[5] = thioglycolipid concentration 0.05 wt %
[6] = thioglycolipid concentration 0.1 wt %
[7] = thioglycolipid concentration 0.25 wt %
[8] = thioglycolipid concentration 0.5 wt %
[9] = thioglycolipid concentration 0.75 wt %
[10] = thioglycolipid concentration 1 wt %
[11] = thioglycolipid concentration 2 wt %
[12] = thioglycolipid concentration 5 wt %
[13] = thioglycolipid concentration 10 wt %

Structure (SMILES) | Hydrogel disk size or volume in aqueous media ([1]; pH 2, 7.4 and 10, days 1-21) | Time hydrogel disks are stable in aqueous media ([1]; pH 2, 7.4 and 10, maximum time investigated) | Gel properties at 37° C. [2] | Phase transition temperature ([3]; 2 wt % hydrogel) | Enthalpy (J/g hydrogel) ([3]; 2 wt % hydrogel) | Enthalpy (kJ/mol thioglycolipids) ([3]; 2 wt % hydrogel) | Concentration at which solutions were completely gelled [4] [wt %] | Visual assessment of aggregation and gelation [4, 5] | Visual assessment of aggregation and gelation [4, 6] | Visual assessment of aggregation and gelation [4, 7] | Visual assessment of aggregation and gelation [4, 8] | Visual assessment of aggregation and gelation [4, 9] | Visual assessment of aggregation and gelation [4, 10] | Visual assessment of aggregation and gelation [4, 11] | Visual assessment of aggregation and gelation [4, 12] | Visual assessment of aggregation and gelation [4, 13] | Phase transition temperature ([3]; 1 wt % hydrogel) | Enthalpy (J/g hydrogel) ([3]; 1 wt % hydrogel) | Enthalpy (kJ/mol thioglycolipids) ([3]; 1 wt % hydrogel)
CCCCCCCCCCS[C@@H]1O[C@H](CO)[C@@H](O[C@@H]2O[C@H](CO)[C@H](O)[C@H](O)[C@H]2O)[C@H](O)[C@H]1O [LacSC10] | No observable decrease in disk size or volume | stable in these aqueous media for over two months | retained their gel properties | 57-64 °C | 0.35 ± 0.02 | 8.8 ± 0.5 | ≥ 2 | G + C | G + C | G + C | G + C | G + C | G + C | G | G | G | – | – | –
CCCCCCCCCCCCS[C@@H]1O[C@H](CO)[C@@H](O[C@@H]2O[C@H](CO)[C@H](O)[C@H](O)[C@H]2O)[C@H](O)[C@H]1O [LacSC12] | – | – | retained their gel properties | – | – | – | – | O | O | O | G + C | G + C | G | G | G | G | 63-79 °C | 0.39 ± 0.10 | 20.7 ± 5.3
